According to paper PMC10794144, “A novel antibiotic class targeting the lipopolysaccharide transporter” (Nature, 2024):
Values after ≈ are worked out from the molar mass of the structure shown. Read-outs that look alike come from different tables or passages of the source.

Test system: A. baumannii
Test: MIC, broth microdilution in CAMHB supplemented with human serum, read at 100% growth inhibition
Type: cell-based, Acinetobacter baumannii
Conditions: Acinetobacter baumannii, 20% HS, read-out: MIC
Description: MIC determinations were performed using the broth microdilution method and in line with CLSI guidelines M07 and M100 (refs. [37],[38]). Bacterial inocula were prepared by diluting a 0.5 McFarland suspension in CAMHB or lysogeny broth (LB) specifically for A. baylyi isolates. […] MIC values of all of the tested antibiotics were read as the lowest compound concentration inhibiting bacterial growth by naked eye or beyond which the OD600 ceased to decrease.

Compound CN1C(=O)[C@H](CCCCN)NC(=O)[C@H](CCCN)NCc2cccnc2Sc2cccc(-c3ccc(C(=O)O)cc3)c2CNC(=O)[C@@H]1Cc1c[nH]c2ccccc12 [zosurabalpin] has an MIC (isolate 1061067) of 0.25 µg/mL (≈ 0.316 µM), an MIC (isolate 1061145) of 0.125 µg/mL (≈ 0.158 µM) and an MIC (isolate 1065279) of 0.25 µg/mL (≈ 0.316 µM). It also gave an MIC (isolate 1065391) of 0.25 µg/mL (≈ 0.316 µM), an MIC (isolate 1065549) of 0.06 µg/mL (≈ 0.0759 µM) and an MIC (isolate 1069554) of 0.06 µg/mL (≈ 0.0759 µM). For the same compound, the MIC (isolate 1072184) was 0.25 µg/mL (≈ 0.316 µM), the MIC (isolate 1089062) was 0.125 µg/mL (≈ 0.158 µM) and the MIC (isolate 1089975) was 0.125 µg/mL (≈ 0.158 µM). For the same compound, the MIC (isolate 1093170) was 0.25 µg/mL (≈ 0.316 µM), the MIC (isolate 1098735) was 1 µg/mL (≈ 1.26 µM) and the MIC (isolate 1104059) was 1 µg/mL (≈ 1.26 µM). The MIC (isolate 1104061) was 0.25 µg/mL (≈ 0.316 µM), the MIC (isolate 1104062) was 0.25 µg/mL (≈ 0.316 µM) and the MIC (isolate 1115481) was 0.06 µg/mL (≈ 0.0759 µM). It also gave an MIC (isolate 1115495) of 0.5 µg/mL (≈ 0.632 µM), an MIC (isolate 1115510) of 0.5 µg/mL (≈ 0.632 µM) and an MIC (isolate 1115514) of 0.25 µg/mL (≈ 0.316 µM). The MIC (isolate 1126813) was 0.25 µg/mL (≈ 0.316 µM), the MIC (isolate 1140100) was 0.06 µg/mL (≈ 0.0759 µM) and the MIC (isolate 1154091) was 1 µg/mL (≈ 1.26 µM). For the same compound, the MIC (isolate 1161864) was 0.016 µg/mL (≈ 0.0202 µM), the MIC (isolate 1171976) was 0.06 µg/mL (≈ 0.0759 µM) and the MIC (isolate 1172109) was 0.016 µg/mL (≈ 0.0202 µM). It also gave an MIC (isolate 1172126) of 0.06 µg/mL (≈ 0.0759 µM), an MIC (isolate 1630178) of 0.25 µg/mL (≈ 0.316 µM) and an MIC (isolate 1630190) of 1 µg/mL (≈ 1.26 µM). It also gave an MIC (isolate 1630410) of 0.25 µg/mL (≈ 0.316 µM), an MIC (isolate 1631625) of 0.06 µg/mL (≈ 0.0759 µM) and an MIC (isolate 1631735) of 0.5 µg/mL (≈ 0.632 µM). It also gave an MIC (isolate 1631846) of 0.125 µg/mL (≈ 0.158 µM), an MIC (isolate 1631847) of 2 µg/mL (≈ 2.53 µM) and an MIC (isolate 1631848) of 4 µg/mL (≈ 5.06 µM). The MIC (isolate 1631849) was 0.06 µg/mL (≈ 0.0759 µM), the MIC (isolate 1631949) was 0.5 µg/mL (≈ 0.632 µM) and the MIC (isolate 1631953) was 0.5 µg/mL (≈ 0.632 µM). It also gave an MIC (isolate 1631954) of 0.25 µg/mL (≈ 0.316 µM), an MIC (isolate 1631955) of 0.06 µg/mL (≈ 0.0759 µM) and an MIC (isolate 1632073) of 0.06 µg/mL (≈ 0.0759 µM). The MIC (isolate 1632166) was 0.25 µg/mL (≈ 0.316 µM), the MIC (isolate 1632273) was 0.25 µg/mL (≈ 0.316 µM) and the MIC (isolate 1633081) was 0.25 µg/mL (≈ 0.316 µM). It also gave an MIC (isolate 1633082) of 0.5 µg/mL (≈ 0.632 µM), an MIC (isolate 1633098) of 0.25 µg/mL (≈ 0.316 µM) and an MIC (isolate 1633115) of 0.25 µg/mL (≈ 0.316 µM). For the same compound, the MIC (isolate 1633117) was 1 µg/mL (≈ 1.26 µM), the MIC (isolate 1633121) was 0.5 µg/mL (≈ 0.632 µM) and the MIC (isolate 1633124) was 1 µg/mL (≈ 1.26 µM). For the same compound, the MIC (isolate 1633269) was 2 µg/mL (≈ 2.53 µM), the MIC (isolate 1633271) was 1 µg/mL (≈ 1.26 µM) and the MIC (isolate 1633272) was 1 µg/mL (≈ 1.26 µM). The MIC (isolate 1728772) was 0.25 µg/mL (≈ 0.316 µM), the MIC (isolate 1728773) was 0.5 µg/mL (≈ 0.632 µM) and the MIC (isolate 1728774) was 0.25 µg/mL (≈ 0.316 µM). It also gave an MIC (isolate 1728884) of 0.5 µg/mL (≈ 0.632 µM).
